Source: PubChem BioAssay AID330 (DTP/NCI, 2004)
Several values for one entry are separate records, joined by “and”; a condition that tells them apart may be missing. Equal entries are not always repeated. Toxic doses and inconclusive results are not listed. Rule for the calls: active = survival T/C of 150% or more; inactive = T/C below 125% in these data.

Tested on: P388 leukemia ip, CD2F1 mice, survival T/C
Assay: NCI In Vivo Anticancer Drug Screen. Data for tumor model P388 Leukemia (intraperitoneal) in CD2F1 (CDF1) mice
Conditions: endpoint: median survival time, higher = longer survival
Method in brief: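 Mice carrying the transplanted tumor received test compound or vehicle. Survival was recorded in each group, and the value is the treated-group measurement divided by that of the vehicle-treated control group.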

[1] = dose: 100.0 mg/kg/injection, schedule: Q04DX003 (ip), vehicle: Klucel (hydroxypropylcellulose) (HPC)
[2] = dose: 200.0 mg/kg/injection, schedule: Q04DX003 (ip), vehicle: Klucel (hydroxypropylcellulose) (HPC)
[3] = dose: 400.0 mg/kg/injection, schedule: Q04DX003 (ip), vehicle: Klucel (hydroxypropylcellulose) (HPC)
[4] = dose: 60.0 mg/kg/injection, schedule: Q01DX005 (ip), vehicle: Klucel (hydroxypropylcellulose) (HPC)
[5] = dose: 120.0 mg/kg/injection, schedule: Q01DX005 (ip), vehicle: Klucel (hydroxypropylcellulose) (HPC)
[6] = dose: 240.0 mg/kg/injection, schedule: Q01DX005 (ip), vehicle: Klucel (hydroxypropylcellulose) (HPC)
[7] = dose: 100.0 mg/kg/injection, schedule: Q01DX009 (ip), vehicle: Klucel (hydroxypropylcellulose) (HPC)
[8] = dose: 200.0 mg/kg/injection, schedule: Q01DX009 (ip), vehicle: Klucel (hydroxypropylcellulose) (HPC)
[9] = dose: 50.0 mg/kg/injection, schedule: Q01DX005 (ip), vehicle: Klucel (hydroxypropylcellulose) (HPC)
[10] = dose: 100.0 mg/kg/injection, schedule: Q01DX005 (ip), vehicle: Klucel (hydroxypropylcellulose) (HPC)
[11] = dose: 200.0 mg/kg/injection, schedule: Q01DX005 (ip), vehicle: Klucel (hydroxypropylcellulose) (HPC)

Measured: T/C

CN1c2ccccc2Sc2cc(N3c4ccccc4Sc4ccc(C(F)(F)F)cc43)c(C(F)(F)F)cc21
inactive: [1] 101 % of control | [2] 100 % of control | [3] 98 % of control

Nc1nc(Cl)cc(=O)[nH]1
inactive: dose: 50.0 mg/kg/injection, schedule: Q04DX003 (ip), vehicle: Klucel (hydroxypropylcellulose) (HPC) 94 % of control | [1] 102 % of control | [2] 94 % of control | [3] 94 % of control

O=S(=O)(O)CC(O)CN(CCO)CCO (configuration not stated)
inactive: dose: 60.0 mg/kg/injection, schedule: Q01DX005 (ip), vehicle: saline 108 % of control | dose: 120.0 mg/kg/injection, schedule: Q01DX005 (ip), vehicle: saline 102 % of control | dose: 240.0 mg/kg/injection, schedule: Q01DX005 (ip), vehicle: saline 100 % of control

Oc1ccc2ccccc2c1C=Nc1ccc(N=Cc2c(O)ccc3ccccc23)cc1
inactive: dose: 100.0 mg/kg/injection, schedule: Q01DX001 (ip), vehicle: saline with Tween-80 91 % of control | dose: 200.0 mg/kg/injection, schedule: Q01DX001 (ip), vehicle: saline with Tween-80 90 % of control | dose: 400.0 mg/kg/injection, schedule: Q01DX001 (ip), vehicle: saline with Tween-80 91 % of control

NC1=C(Br)C(=O)C(N)=C(Br)C1=O
inactive: [4] 100 % of control | [5] 97 % of control | [6] 105 % of control

CN(C)CCCC1(O)c2ccccc2Sc2cc(Cl)ccc21 (configuration not stated)
inactive: dose: 60.0 mg/kg/injection, schedule: Q01DX005 (ip), vehicle: saline with Tween-80 100 % of control | dose: 120.0 mg/kg/injection, schedule: Q01DX005 (ip), vehicle: saline with Tween-80 96 % of control

O=NN(CCCl)C(=O)Oc1ccc(OC(=O)N(CCCl)N=O)cc1
inactive: dose: 6.25 mg/kg/injection, schedule: Q01DX001 (ip), vehicle: Klucel (hydroxypropylcellulose) (HPC) 116 % of control | dose: 12.5 mg/kg/injection, schedule: Q01DX001 (ip), vehicle: Klucel (hydroxypropylcellulose) (HPC) 119 % of control

CCOC(=O)C1NC(=O)C(C)NC1=O (configuration not stated)
inactive: [4] 103 % of control | [5] 107 % of control | [6] 100 % of control

COc1ccc(NC(=O)C#N)cc1
inactive: dose: 7.5 mg/kg/injection, schedule: Q01DX005 (ip), vehicle: saline with Tween-80 105 % of control | dose: 15.0 mg/kg/injection, schedule: Q01DX005 (ip), vehicle: saline with Tween-80 113 % of control

CC(C)([CH2][Sn]([CH3])([Cl])[Cl])c1ccccc1
inactive: dose: 0.79 mg/kg/injection, schedule: Q04DX003 (ip), vehicle: saline with Tween-80 99 % of control and 101 % of control | dose: 1.56 mg/kg/injection, schedule: Q04DX003 (ip), vehicle: saline with Tween-80 99 % of control and 116 % of control and 98 % of control | dose: 3.12 mg/kg/injection, schedule: Q04DX003 (ip), vehicle: saline with Tween-80 102 % of control and 111 % of control and 95 % of control | dose: 6.25 mg/kg/injection, schedule: Q04DX003 (ip), vehicle: saline with Tween-80 104 % of control and 97 % of control and 98 % of control | dose: 6.25 mg/kg/injection, schedule: Q04DX003 (ip), vehicle: saline 106 % of control

CC(C)(C)C(=O)Nc1ccc(C(C)(C)C)cc1C(O)(C(F)(F)F)C(F)(F)F
inactive: [7] 92 % of control | [8] 88 % of control

CC(=O)Oc1cccc(C#N)c1
inactive: dose: 100.0 mg/kg/injection, schedule: Q04DX003 (ip), vehicle: saline with Tween-80 100 % of control | dose: 200.0 mg/kg/injection, schedule: Q04DX003 (ip), vehicle: saline with Tween-80 100 % of control | dose: 400.0 mg/kg/injection, schedule: Q04DX003 (ip), vehicle: saline with Tween-80 104 % of control

[S-]c1n[n+](-c2ccccc2)c(-c2ccccc2)s1
inactive: dose: 50.0 mg/kg/injection, schedule: Q01DX009 (ip), vehicle: saline with Tween-80 100 % of control | dose: 100.0 mg/kg/injection, schedule: Q01DX009 (ip), vehicle: saline with Tween-80 100 % of control | dose: 200.0 mg/kg/injection, schedule: Q01DX009 (ip), vehicle: saline with Tween-80 93 % of control

CCOC(=O)Nc1nc2ccc(SC#N)cc2s1
inactive: dose: 6.25 mg/kg/injection, schedule: Q01DX009 (ip), vehicle: Klucel (hydroxypropylcellulose) (HPC) 107 % of control | dose: 12.5 mg/kg/injection, schedule: Q01DX009 (ip), vehicle: Klucel (hydroxypropylcellulose) (HPC) 107 % of control | dose: 25.0 mg/kg/injection, schedule: Q01DX009 (ip), vehicle: Klucel (hydroxypropylcellulose) (HPC) 96 % of control

COC(=O)/C=C1\C(=O)OCC1(C)C
inactive: dose: 100.0 mg/kg/injection, schedule: Q04DX003 (ip), vehicle: saline 100 % of control | dose: 200.0 mg/kg/injection, schedule: Q04DX003 (ip), vehicle: saline 104 % of control | dose: 400.0 mg/kg/injection, schedule: Q04DX003 (ip), vehicle: saline 103 % of control

O=C(O)C(C1CCCCC1)C1(O)CCCCCC1 (configuration not stated)
inactive: [9] 97 % of control | [10] 103 % of control | [11] 100 % of control

O=C1NC(=O)C23CC=CCC12CCCC3 (configuration not stated)
inactive: dose: 50.0 mg/kg/injection, schedule: Q01DX009 (ip), vehicle: Klucel (hydroxypropylcellulose) (HPC) 101 % of control | [7] 100 % of control | [8] 100 % of control

CCOC(=O)/C=C/c1c[nH]c(=O)[nH]c1=O
inactive: dose: 12.5 mg/kg/injection, schedule: Q01DX009 (ip), vehicle: distilled water + Tween-80 100 % of control | dose: 25.0 mg/kg/injection, schedule: Q01DX009 (ip), vehicle: distilled water + Tween-80 96 % of control | dose: 50.0 mg/kg/injection, schedule: Q01DX009 (ip), vehicle: distilled water + Tween-80 92 % of control | dose: 100.0 mg/kg/injection, schedule: Q01DX009 (ip), vehicle: distilled water + Tween-80 88 % of control

COc1ccc(C2c3cc(O)c(OC)cc3Oc3cc(OC)c(O)cc32)cc1
inactive: [9] 87 % of control | [10] 94 % of control | [11] 96 % of control

CC1(C)CC(Nc2ccccc2)=CC(=Nc2ccccc2)S1
inactive: [4] 110 % of control | [5] 92 % of control | [6] 89 % of control

NC(=O)CCCC(C(N)=O)(c1ccccc1)c1ccccc1
inactive: dose: 100.0 mg/kg/injection, schedule: Q01DX001 (ip), vehicle: Klucel (hydroxypropylcellulose) (HPC) 101 % of control | dose: 200.0 mg/kg/injection, schedule: Q01DX001 (ip), vehicle: Klucel (hydroxypropylcellulose) (HPC) 100 % of control | dose: 400.0 mg/kg/injection, schedule: Q01DX001 (ip), vehicle: Klucel (hydroxypropylcellulose) (HPC) 100 % of control

Nc1nc(Cl)c2[nH]c(Cl)nc2n1
inactive: dose: 12.5 mg/kg/injection, schedule: Q01DX005 (ip), vehicle: Klucel (hydroxypropylcellulose) (HPC) 104 % of control | dose: 25.0 mg/kg/injection, schedule: Q01DX005 (ip), vehicle: Klucel (hydroxypropylcellulose) (HPC) 102 % of control | [9] 100 % of control and 96 % of control | [10] 99 % of control
